Entries after “also recorded” stand apart in the source; their conditions may differ.
Legend:
Assay type in all cases: cell-based
IE2-YFP = assay: Single-cell time-lapse fluorescence microscopy of IE2-YFP levels, CMV IE2-YFP virus; details: pretreatment with activator vs untreated control
Procedure: (§1) MRC5 fibroblasts and life-extended human foreskin fibroblasts (HFFs) (Bresnahan and Shenk, 2000) were maintained in Dulbecco's Modified Eagle's Medium (DMEM) supplemented with 10% fetal bovine serum (FBS) and 50 U/ml penicillin-streptomycin at 37° C. and 5% CO2 in a humidified incubator. ARPE-19 cells were maintained in a 1:1 mixture of DMEM/F-12 (Mediatech Inc.) with 10% FBS (HyClone) and 50 U/ml Penicillin-Streptomycin (Mediatech Inc.). Cells were pretreated in a final concentration of 1 mM VPA (Calbiochem).
Life-extended HFFs and PML knockdown HFFs (a gift from Roger Everett) were passed onto a 96-well glass-bottom plate (Thermo Fisher Scientific) and grown to confluency to hold cells in the G0. Cells were synchronously infected on ice for 30 mins at MOI=1 (infection with mutant was done at room temperature). Live cells were imaged using a 20× oil objective on a spinning-disk confocal microscope (Olympus DSU™) equipped with a 37° C., humidified, 5% CO2 live-cell chamber. Image collection began when YFP signal was first detected and frames were captured every 10 minutes for 16-24 hours using an exposure time between 200 and 800 msec. Single-cell tracking and segmentation were performed with custom-written code in MatLab™ (Mathworks) as previously described (Weinberger et al., 2008). Homo-FRET imaging was performed as previously described (Weinberger and Shenk, 2007).

IE2 = assay: Quantitative Western blot of IE2 expression during CMV infection; details: pre-treatment with activator vs untreated control
Procedure: as §1
MRC5s at ˜60% confluency were infected at MOI=1. To synchronize viral entry, adsorption was done at 4° C. for 30 min., cells washed once in PBS (Mediatech, Inc.), fresh media added, and cells placed at a 37° C. in a humidified CO2 incubator. Time points were collected every 1-2 hrs for 20-24 hrs as indicated. Sample collection, protein transfer, and blot preparation were as previously described (Bolovan-Fritts et al., 2004) and samples were loaded and separated on precast SDS PAGE 10% or 7.5% bisacrylamide gels (BioRad).
For quantitative IE2 detection, the 1° antibody MAB810 (Millipore) was used at 1:100 and 2° antibody 926-32212 (LI-COR™) was used at a dilution of 1:20,000. For normalization, anti-beta tubulin antibody 26-42211 (LI-COR™) used at a dilution of 1:2000 followed by 2′ antibody 926-68073 (LI-COR™) at a dilution of 1:20,000. Blots were scanned and quantified on a LI-COR™ Odyssey™ according to manufacturer's protocols.

CMV IE2-YFP virus = assay: Viral replication kinetics (titer), CMV IE2-YFP virus; details: for replication fitness of the parent virus (toxicity of exposure alone): VPA or TSA exposure
Procedure: as §1
(§2) Confluent MRC5 monolayers at ˜5×10^4 cells per well were infected at indicated MOIs using 0.45 μm pre-filtered virus inoculum stocks diluted in culture media. Inoculums were calculated based on plaque-assay titrations (Bolovan-Fritts and Wiedeman, 2001), shown as time point 0 in each figure. Inoculum was then removed and replaced with 1 mL fresh media. Infected wells were collected in triplicate at indicated time points and stored at −80° C. To measure replication, samples were thawed and prepared as a 10-fold serial-dilution series in culture media, analyzed by TCID50, then converted to PFU/ml. Error ranges were calculated by standard deviation.

[1] = test system: cells expressing the wild-type accelerator circuit MIEP-IE2-IRES-GFP; assay: Percentage of live cells by flow cytometry, wild-type accelerator circuit cells; details: after 14 days of TSA treatment
Procedure: (§3) MIEPΔcrs-IE2-GFP was constructed by PCR cloning MIEPΔcrs from the CMV Δcrs IE2-YFP bacmid and inserted into MIEP-IE2-GFP. ARPE-19 cells were transduced with the MIEP-IE2-GFP and MIEPΔcrs-IE2-GFP vectors and FACS sorted for GFP. The transduced cell lines were allowed to recover for 24 hours before the percentage of GFP-expressing cells for each cell line was quantified. Live cells were gated by forward versus side scattering on a FacsCalibur cytometer. On the first day after recovery, 2,500 GFP events were recorded. Subsequently, at least 10,000 GFP events were recorded for each experiment and analyzed using FlowJo™. For genomic PCR, genomic DNA was purified using a NucleoSpin Tissue kit (Clontech).

[2] = test system: MIEP-IE2-GFP cells (MIEP-IE2-IRES-GFP circuit, ARPE-19); assay: Flow cytometry of GFP in negative-feedback MIEP-IE2-GFP cells; details: different levels of activation by TSA treatment, 17 hours
Source text: (§4) Mathematica™ (Wolfram Research) was used for closed-loop analysis. Standard lentiviral cloning was used to create minimal MIE circuits (Dull et al., 1998). The minimal MIEP-IE2-GFP and MIEP-GFP circuits are driven by a full-length ˜2.5 kb MIE promoter-enhancer (MIEP) that spans the sequence from the MIEP modulator at the 5′ edge to the junction of IE exons 1 and 2. The MIEP was PCR-cloned from AD169 into pLEIGW (a gift from Thor Lemishka) in place of the EF1a promoter. This full-length MIEP drives an IE2-IRES-GFP or mCherry-IRES-GFP cassette. IE2 was cloned from pRSV-IE86 (a gift from Jay Nelson). ARPE-19 cells were infected and FACS sorted for GFP to create stably expressing cell lines. Cells were treated with TSA for 17 hours, and GFP expression was quantified by flow cytometry. Live cells were gated by forward-versus-side scattering on a FacsCalibur™ cytometer (BD Biosciences) and mean fluorescence intensity recorded. At least 20,000 live cells were recorded for each experiment and data was analyzed in FlowJo™ (Treestar Inc.).
Cell lines (ARPE-19 cells) expressing IE2-GFP from MIE promoter (MIEP) (referred to as “MIEP-IE2-GFP cells”) were tested, in comparison to a cell line expressing MIEP-GFP control (referred to as “MIEP-GFP control cells). MIEP-IE2-GFP cells and MIEP-GFP control cells were treated with 10 ng/ml TNF-α, 400 nM TSA, or 1 mM VPA in MIEP-IE2-GFP cells. […]

[3] = test system: cells expressing the mutant amplifier circuit MIEPΔcrs-IE2-IRES-GFP; details: after 14 days of TSA treatment
Procedure: as §3

[4] = test system: MIEP-GFP control cells (MIEP-mCherry-IRES-GFP circuit, ARPE-19); assay: Flow cytometry of GFP in non-feedback MIEP-GFP control cells; details: for GFP median fluorescence intensity: 10 ng/ml TNF-α, 400 nM TSA, or 1 mM VPA
Source text: as §4
Cell lines (ARPE-19 cells) expressing IE2-GFP from MIE promoter (MIEP) (referred to as “MIEP-IE2-GFP cells”) were tested, in comparison to a cell line expressing MIEP-GFP control (referred to as “MIEP-GFP control cells). MIEP-IE2-GFP cells and MIEP-GFP control cells were treated with 10 ng/ml TNF-α, 400 nM TSA, or 1 mM VPA in MIEP-IE2-GFP cells. The data are depicted in FIG. 33.

[5] = test system: low-passage clinical CMV isolate TB40-E; assay: Viral replication (titer), clinical isolate TB40-E
Procedure: as §2

CMV Δcrs mutant virus = assay: Replicative fitness of the CMV Δcrs mutant virus (PFU/ml); details: 72-hour VPA treatment, PFU/ml on day 10 after infection at MOI=1
Procedure: The CMV GFP control virus (Yu et al., 2003) encodes an SV40 promoter-EGFP cassette. The CMV […] IE2-YFP virus was constructed from the CMV IE2-YFP background as described (Cuevas-Bennett and Shenk, 2008). Viral stocks were titered by TCID50 (Nevels et al., 2004). To verify the integrity of the CMV Δcrs IE2-YFP virus, a rescue virus, CMV ΔcrsREVERT IE2-YFP, was constructed by homologous recombination, whereby CMV Δcrs IE2-YFP BAC DNA (20 μg) and a ˜2.5 kb wild-type MIEP DNA fragment (2.5 μg) were co-transfected by electroporation into 10^6 MRC5 cells, and subjected to two rounds of plaque purification.
as §2

Compound	rate of IE2 expression in single cells (time to steady-state) (IE2-YFP)	steady-state IE2 levels in single cells (IE2-YFP)	IE2 protein levels (amplification) (IE2)	rate of IE2 expression (acceleration) (IE2)	replication fitness of the parent virus (toxicity of exposure alone) (CMV IE2-YFP virus)	viability (percentage of live cells) [1]	GFP steady-state level as a function of activation (closed-loop dose-response) [2]	viability (percentage of live cells) [3]	GFP median fluorescence intensity [4]	GFP steady-state level as a function of activation (closed-loop dose-response) ([4]; different levels of activation by TSA treatment, 17 hours)	increase in viral replication compared to the untreated control (CMV IE2-YFP virus; 72-hour VPA pre-treatment, after the first round of viral maturation (~96 hours), MOI=1)	increase in titer [5]	replication of the mutant amplifier virus (CMV Δcrs mutant virus)
CC(/C=C/C(=O)NO)=C\[C@@H](C)C(=O)c1ccc(N(C)C)cc1 [TSA, Trichostatin A]	significantly accelerates IE2 expression in single cells	does not amplify steady-state IE2 levels	do not amplify IE2 protein levels	accelerate IE2 expression	neither activator reduces replication fitness	little effect on viability	saturation in steady-state level	significantly decreased viability	significantly increased	linear increase in final level	–	–	–
CCCC(CCC)C(=O)O [VPA, Valproic Acid]	significantly accelerates IE2 expression in single cells; also recorded: decreases time to steady-state	does not amplify steady-state IE2 levels; also recorded: without increasing steady-state IE2-YFP levels	do not amplify IE2 protein levels; also recorded: no amplification in IE2 levels	accelerate IE2 expression; also recorded: acceleration	neither activator reduces replication fitness	–	–	–	significantly increased	–	approximately five	nine	Decreased replication
Tumor Necrosis Factor Alpha [TNF-α]	significantly accelerates IE2 expression in single cells	does not amplify steady-state IE2 levels	do not amplify IE2 protein levels	accelerate IE2 expression	–	–	–	–	significantly increased	–	–	–	–
